Results taken from patent US20130157954A1, “METHODS FOR TREATMENT OR PROPHYLAXIS OF KIDNEY OR LIVER DYSFUNCTION” (NPS PHARMACEUTICALS, INC., priority 2010, published 2013).

Assay: Example 2: liver biomarkers (albumin, gamma glutamyl transferase, total bilirubin, ALT, AST, ALP) in short bowel syndrome patients, every four weeks for 24 weeks; also sorted by >10% change from baseline
Type: in vivo, Human
Conditions: 0.05 mg/kg/d
Description: To further confirm the results of Example 1, a further study was conducted involving more individuals and additional diagnostic biomarkers. Human patients with short bowel syndrome were divided into two groups: a control group (43 total individuals) to receive placebo, and an experimental group (42 total individuals) to receive teduglutide at 0.05 mg/kg/day throughout the study. Patients were treated by subcutaneous injection of placebo or the appropriate dose of teduglutide. Known biomarkers of liver function were monitored every four weeks, for 24 weeks. The liver biomarkers tested included albumin, gamma glutamyl transferase, total bilirubin, ALT and AST and ALP. Before administration of placebo or teduglutide, diagnostic biomarker levels were tested to establish a baseline for each individual.
To determine the effect of GLP-2 on the levels of the diagnostic biomarkers, the average level of each biomarker was measured for the placebo and teduglutide treated groups for each visit. Furthermore, the average change from baseline was calculated using the established baseline values. For FIGS. 17-28, p-values were calculated using the t-test.
P values are provided, which were calculated for each distribution of biomarker changes for each week using the chi-squared test.

Structure (SMILES): CC[C@H](C)[C@H](NC(=O)[C@H](Cc1ccccc1)NC(=O)[C@H](CC(=O)O)NC(=O)[C@H](CCCNC(=N)N)NC(=O)[C@H](C)NC(=O)[C@H](C)NC(=O)[C@H](CC(C)C)NC(=O)[C@H](CC(N)=O)NC(=O)[C@H](CC(=O)O)NC(=O)[C@H](CC(C)C)NC(=O)[C@@H](NC(=O)[C@@H](NC(=O)[C@H](CC(N)=O)NC(=O)[C@H](CCSC)NC(=O)[C@H](CCC(=O)O)NC(=O)[C@H](CC(=O)O)NC(=O)[C@H](CO)NC(=O)[C@H](Cc1ccccc1)NC(=O)[C@H](CO)NC(=O)CNC(=O)[C@H](CC(=O)O)NC(=O)CNC(=O)[C@@H](N)Cc1c[nH]cn1)[C@@H](C)O)[C@@H](C)CC)C(=O)N[C@@H](CC(N)=O)C(=O)N[C@@H](Cc1c[nH]c2ccccc12)C(=O)N[C@@H](CC(C)C)C(=O)N[C@H](C(=O)N[C@@H](CCC(N)=O)C(=O)N[C@H](C(=O)N[C@@H](CCCCN)C(=O)N[C@H](C(=O)N[C@H](C(=O)N[C@@H](CC(=O)O)C(=O)O)[C@@H](C)O)[C@@H](C)CC)[C@@H](C)O)[C@@H](C)CC [teduglutide]
- Bilirubin: subjects Within 10% of Baseline (Week 8, m = 40): 10 (25.0%) n (%)
- Bilirubin: subjects with >10% decrease from Baseline (Week 8, m = 40): 20 (50.0%) n (%)
- Bilirubin: subjects with >10% increase from Baseline (Week 8, m = 40): 10 (25.0%) n (%)
- ALKALINE PHOSPHATASE Change from Baseline Median (Week 12): −23 U/L
- ALT Change from Baseline, Max (Week 12): 35 U/L
- ALT Change from Baseline, Mean (Week 12): −9.8 U/L
- ALT Change from Baseline, Median (Week 12): −4 U/L
- ALT Change from Baseline, Min (Week 12): −62 U/L
- ALT Observed Value, Max (Week 12): 94 U/L
- ALT Observed Value, Min (Week 12): 11 U/L
- AST Change from Baseline, Max (Week 12): 34 U/L
- AST Change from Baseline, Mean (Week 12): −4.2 U/L
- AST Change from Baseline, Median (Week 12): −5 U/L
- AST Change from Baseline, Min (Week 12): −39 U/L
- AST Observed Value, Max (Week 12): 60 U/L
- AST Observed Value, Median (Week 12): 25 U/L
- AST Observed Value, Min (Week 12): 9 U/L
- Albumin Change from Baseline, Max (Week 12): 5 g/L
- Albumin Change from Baseline, Mean (Week 12): -0.9 g/L
- Albumin Change from Baseline, Median (Week 12): -1 g/L
- Albumin Change from Baseline, Min (Week 12): -7 g/L
- Albumin Observed Value, Max (Week 12): 47 g/L
- Albumin Observed Value, Median (Week 12): 41 g/L
- Albumin Observed Value, Min (Week 12): 35 g/L
- Alkaline Phosphatase Change from Baseline, Max (Week 12): 25 U/L
- Alkaline Phosphatase Change from Baseline, Min (Week 12): −127 U/L
- Alkaline Phosphatase Observed Value, Max (Week 12): 304 U/L
- Alkaline Phosphatase Observed Value, Median (Week 12): 98 U/L
- Alkaline Phosphatase Observed Value, Min (Week 12): 52 U/L
- Bilirubin Change from Baseline, Max (Week 12): 5.2 µmol/L
- Bilirubin Change from Baseline, Median (Week 12): -0.05 µmol/L
- Bilirubin Change from Baseline, Min (Week 12): -13.2 µmol/L
- Bilirubin Observed Value, Max (Week 12): 57.8 µmol/L
- Bilirubin Observed Value, Min (Week 12): 3.2 µmol/L
- Gamma Glutamyl Transferase Change from Baseline, Max (Week 12): 56 U/L
- Gamma Glutamyl Transferase Change from Baseline, Mean (Week 12): −8.1 U/L
- Gamma Glutamyl Transferase Change from Baseline, Median (Week 12): −4 U/L
- Gamma Glutamyl Transferase Change from Baseline, Min (Week 12): −162 U/L
- Gamma Glutamyl Transferase Observed Value, Max (Week 12): 240 U/L
- Gamma Glutamyl Transferase Observed Value, Median (Week 12): 51 U/L
- Gamma Glutamyl Transferase Observed Value, Min (Week 12): 8 U/L
- ALT: subjects Within 10% of Baseline (Week 12, m = 34): 10 (29.4%) n (%)
- ALT: subjects with >10% decrease from Baseline (Week 12, m = 34): 17 (50.0%) n (%)
- ALT: subjects with >10% increase from Baseline (Week 12, m = 34): 7 (20.6%) n (%)
- AST: subjects Within 10% of Baseline (Week 12, m = 34): 6 (17.6%) n (%)
- AST: subjects with >10% decrease from Baseline (Week 12, m = 34): 21 (61.8%) n (%)
- AST: subjects with >10% increase from Baseline (Week 12, m = 34): 7 (20.6%) n (%)
- Albumin: subjects Within 10% of Baseline (Week 12, m = 34): 31 (91.2%) n (%)
- Albumin: subjects with >10% decrease from Baseline (Week 12, m = 34): 2 (5.9%) n (%)
- Albumin: subjects with >10% increase from Baseline (Week 12, m = 34): 1 (2.9%) n (%)
- Alkaline Phosphatase: subjects Within 10% of Baseline (Week 12, m = 34): 6 (17.6%) n (%)
- Alkaline Phosphatase: subjects with >10% decrease from Baseline (Week 12, m = 34): 23 (67.6%) n (%)
- Alkaline Phosphatase: subjects with >10% increase from Baseline (Week 12, m = 34): 5 (14.7%) n (%)
- Bilirubin: subjects Within 10% of Baseline (Week 12, m = 34): 10 (29.4%) n (%)
- Bilirubin: subjects with >10% decrease from Baseline (Week 12, m = 34): 15 (44.1%) n (%)
- Bilirubin: subjects with >10% increase from Baseline (Week 12, m = 34): 9 (26.5%) n (%)
- ALT Change from Baseline, Max (Week 16): 45 U/L
- ALT Change from Baseline, Mean (Week 16): −8.0 U/L
- ALT Change from Baseline, Median (Week 16): −3 U/L
- ALT Change from Baseline, Min (Week 16): −64 U/L
- ALT Observed Value, Max (Week 16): 140 U/L
- ALT Observed Value, Min (Week 16): 13 U/L
- AST Change from Baseline, Max (Week 16): 20 U/L
- AST Change from Baseline, Mean (Week 16): −3.3 U/L
- AST Change from Baseline, Median (Week 16): −3 U/L
- AST Change from Baseline, Min (Week 16): −42 U/L
- AST Observed Value, Max (Week 16): 65 U/L
- AST Observed Value, Median (Week 16): 26 U/L
- AST Observed Value, Min (Week 16): 9 U/L
- Albumin Change from Baseline, Max (Week 16): 3 g/L
- Albumin Change from Baseline, Mean (Week 16): -0.7 g/L
- Albumin Change from Baseline, Median (Week 16): -0.5 g/L
- Albumin Change from Baseline, Min (Week 16): -5 g/L
- Albumin Observed Value, Max (Week 16): 49 g/L
- Albumin Observed Value, Median (Week 16): 42 g/L
- Albumin Observed Value, Min (Week 16): 32 g/L
- Alkaline Phosphatase Change from Baseline, Max (Week 16): 71 U/L
- Alkaline Phosphatase Change from Baseline, Min (Week 16): −104 U/L
- Alkaline Phosphatase Observed Value, Max (Week 16): 311 U/L
- Alkaline Phosphatase Observed Value, Min (Week 16): 46 U/L
- Bilirubin Change from Baseline, Max (Week 16): 5.2 µmol/L
- Bilirubin Change from Baseline, Min (Week 16): -37.7 µmol/L
- Bilirubin Observed Value, Max (Week 16): 27.4 µmol/L
- Bilirubin Observed Value, Mean (Week 16): 9.40 µmol/L
- Bilirubin Observed Value, Median (Week 16): 8.1 µmol/L
- Bilirubin Observed Value, Min (Week 16): 3.4 µmol/L
- Gamma Glutamyl Transferase Change from Baseline, Max (Week 16): 90 U/L
- Gamma Glutamyl Transferase Change from Baseline, Mean (Week 16): −7.0 U/L
- Gamma Glutamyl Transferase Change from Baseline, Median (Week 16): −5.5 U/L
- Gamma Glutamyl Transferase Change from Baseline, Min (Week 16): −161 U/L
- Gamma Glutamyl Transferase Observed Value, Max (Week 16): 294 U/L
- Gamma Glutamyl Transferase Observed Value, Median (Week 16): 54 U/L
- Gamma Glutamyl Transferase Observed Value, Min (Week 16): 6 U/L
- ALT: subjects Within 10% of Baseline (Week 16, m = 38): 10 (26.3%) n (%)
- ALT: subjects with >10% decrease from Baseline (Week 16, m = 38): 20 (52.6%) n (%)
- ALT: subjects with >10% increase from Baseline (Week 16, m = 38): 8 (21.1%) n (%)
- AST: subjects Within 10% of Baseline (Week 16, m = 38): 12 (31.6%) n (%)
- AST: subjects with >10% decrease from Baseline (Week 16, m = 38): 19 (50.0%) n (%)
- AST: subjects with >10% increase from Baseline (Week 16, m = 38): 7 (18.4%) n (%)
- Albumin: subjects Within 10% of Baseline (Week 16, m = 38): 36 (94.7%) n (%)
- Albumin: subjects with >10% decrease from Baseline (Week 16, m = 38): 2 (5.3%) n (%)
- Albumin: subjects with >10% increase from Baseline (Week 16, m = 38): 0 n (%)
